Measured values as given in patent US10869493B2, “Reduced-sweetener products, flavoring mixtures for said reduced-sweetener products and process for the production of products of this type” (SYMRISE AG, priority 2009, dated 2020).

Key:
panelists = assay: Determination of the sucrose equivalence using a comparative series of sucrose concentrations in water; assay type: in vivo, human; conditions: concentration used in preparation C (1 ppm), method of Application example 1, first part
From the text: The sucrose equivalence ratio of the sucrose equivalence of the concentration of the substances or substance of group (i) to the sucrose equivalence of the concentration of the substance or substances of group (ii) in the corresponding flavoring mixture (and in other mixtures, cf. further below), is established as follows: • 1. A comparative series of different sucrose concentrations in water is produced. Preferred concentrations are 0; 0.25; 0.5; 0.75; 1; 1.5; 2; 3; 4 and 5% by weight sucrose in water. Other concentrations, in particular higher concentrations, can optionally also be used for the comparative series. • 2. […] The determined sucrose equivalence is produced from the average of individual gradings by the individual panelists. • 6. The dilution ratio is then determined, using which solution 1 can be set at a sucrose equivalence of 2% by weight sucrose in water. […] It is of course sensible to have the determined dilution ratio tested once more by the panelists. • 7. Solution 2 (containing the compound(s) of group (ii)) is then diluted in the dilution ratio determined under 6. • 8. Subsequently, the dilute solution 2 is also tasted and compared to the sucrose test series, graded by the panelists and a corresponding sucrose equivalence value is determined (analogously to points 4. and 5.). • 9. […]

[1] = Stability of phyllodulcin content under elevated thermal stress (HPLC, UV detection); assay type: physicochemical; conditions: 100 mg/l phyllodulcin in aqueous phosphate buffer pH 9, stored at 40° C., compared to the same quantity as extract
Experimental: The exemplary extract was tested for stability under an elevated thermal stress in comparison to pure phyllodulcin. A solution of 100 mg/l of phyllodulcin and 1.38% of the exemplary ethanolic extract (corresponds to 100 mg of phyllodulcin) in an aqueous phosphate buffer, adjusted to pH 9, was tested immediately after preparation and then at regular weekly intervals for its phyllodulcin content. In this respect, an aliquot of the respective test solution was separated in an HPLC installation (RP phase) and quantified by UV detection compared to a calibration with pure phyllodulcin. The samples were stored at 40° C. in closed glass vessels to prevent evaporation. The phyllodulcin contents of the test solutions are plotted against time in FIG. 1.

Decomposition of phyllodulcin over time (FIG. 1) [1] | SMILES | sucrose equivalence alone in water (panelists)
– | COc1ccc(CCC(=O)c2c(O)cc(O[C@@H]3O[C@H](CO)[C@@H](O)[C@H](O)[C@H]3O[C@@H]3O[C@@H](C)[C@H](O)[C@@H](O)[C@H]3O)cc2O)cc1O [neohesperidin dihydrochalcone] | approximately 0.5%
decomposed more rapidly | COc1ccc([C@H]2Cc3cccc(O)c3C(=O)O2)cc1O [phyllodulcin] | –
